Target: T1, catalytic domain of human Bub1 (amino acids 704-1085) (Homo sapiens, UniProt O43683)
T1 construct: catalytic domain of human Bub1 (amino acids 704-1085); His6 (N); made in house; host or cells: Hi5 insect cells
Assay: Bub1 kinase assay (TR-FRET)
Type: biochemical
Conditions: TR-FRET; ATP 10 μM, peptide substrate 1 μM; 60 min at 22° C.; average or median if tested more than once; read-out: Inhibition of Bub1 kinase IC50
From the text: Bub1-inhibitory activities of compounds described in the present invention were quantified using a time-resolved fluorescence energy transfer (TR-FRET) kinase assay which measures phosphorylation of the synthetic peptide Biotin-Ahx-VLLPKKSFAEPG (C-terminus in amide form), purchased from e.g. Biosyntan (Berlin, Germany) by the (recombinant) catalytic domain of human Bub1 (amino acids 704-1085), expressed in Hi5 insect cells with an N-terminal His6-tag and purified by affinity—(Ni-NTA) and size exclusion chromatography.
In a typical assay 11 different concentrations of each compound (0.1 nM, 0.33 nM, 1.1 nM, 3.8 nM, 13 nM, 44 nM, 0.15 μM, 0.51 μM, 1.7 μM, 5.9 μM and 20 μM) were tested in duplicate within the same microtiter plate. To this end, 100-fold concentrated compound solutions (in DMSO) were previously prepared by serial dilution (1:3.4) of 2 mM stocks in a clear low volume 384-well source microtiter plate (Greiner Bio-One, Frickenhausen, Germany), from which 50 nl of compounds were transferred into a black low volume test microtiter plate from the same supplier. Subsequently, 2 μL of Bub1 (the final concentration of Bub1 was adjusted depending on the activity of the enzyme lot in order to be within the linear dynamic range of the assay: typically ˜200 ng/mL were used) in aqueous assay buffer [50 mM Tris/HCl pH 7.5, 10 mM magnesium chloride (MgCl2), 200 mM potassium chloride (KCl), 1.0 mM dithiothreitol (DTT), 0.1 mM sodium ortho-vanadate, 1% (v/v) glycerol, 0.01% (w/v) bovine serum albumine (BSA), 0.005% (v/v) Trition X-100 (Sigma), 1× Complete EDTA-free protease inhibitor mixture (Roche)] were added to the compounds in the test plate and the mixture was incubated for 15 min at 22° C. to allow pre-equilibration of the putative enzyme-inhibitor complexes before the start of the kinase reaction, which was initiated by the addition of 3 μL 1.67-fold concentrated solution (in assay buffer) of adenosine-tri-phosphate (ATP, 10 μM final concentration) and peptide substrate (1 μM final concentration). The resulting mixture (5 μL final volume) was incubated at 22° C. during 60 min., and the reaction was stopped by the addition of 5 μL of an aqueous EDTA-solution (50 mM EDTA, in 100 mM HEPES pH 7.5 and 0.2% (w/v) bovine serum albumin) which also contained the TR-FRET detection reagents (0.2 μM streptavidin-XL665 [Cisbio Bioassays, Codolet, France] and 1 nM anti-phospho-Serine antibody [Merck Millipore, cat. #35-002] and 0.4 nM LANCE EU-W1024 labeled anti-mouse IgG antibody [Perkin-Elmer, product no. AD0077, alternatively a Terbium-cryptate-labeled anti-mouse IgG antibody from Cisbio Bioassays can be used]). The stopped reaction mixture was further incubated 1 h at 22° C. in order to allow the formation of complexes between peptides and detection reagents. Subsequently, the amount of product was evaluated by measurement of the resonance energy transfer from the Eu-chelate-antibody complex recognizing the Phosphoserine residue to the streptavidin-XL665 bound to the biotin moiety of the peptide. To this end, the fluorescence emissions at 620 nm and 665 nm after excitation at 330-350 nm were measured in a TR-FRET plate reader, e.g. a Rubystar or Pherastar (both from BMG Labtechnologies, Offenburg, Germany) or a Viewlux (Perkin-Elmer) and the ratio of the emissions (665 nm/[…]) was taken as indicator for the amount of phosphorylated substrate. The data were normalised using two sets of control wells for high—(=enzyme reaction without inhibitor=0%=Minimum inhibition) and low—(=all assay components without enzyme=100%=Maximum inhibition) Bub1 activity. IC50 values were calculated by fitting the normalized inhibition data to a 4-parameter logistic equation (Minimum, Maximum, IC50, Hill; Y=Max+(Min−Max)/(1+(X/IC50)Hill)).

T1 sequence (O43683 704-1085): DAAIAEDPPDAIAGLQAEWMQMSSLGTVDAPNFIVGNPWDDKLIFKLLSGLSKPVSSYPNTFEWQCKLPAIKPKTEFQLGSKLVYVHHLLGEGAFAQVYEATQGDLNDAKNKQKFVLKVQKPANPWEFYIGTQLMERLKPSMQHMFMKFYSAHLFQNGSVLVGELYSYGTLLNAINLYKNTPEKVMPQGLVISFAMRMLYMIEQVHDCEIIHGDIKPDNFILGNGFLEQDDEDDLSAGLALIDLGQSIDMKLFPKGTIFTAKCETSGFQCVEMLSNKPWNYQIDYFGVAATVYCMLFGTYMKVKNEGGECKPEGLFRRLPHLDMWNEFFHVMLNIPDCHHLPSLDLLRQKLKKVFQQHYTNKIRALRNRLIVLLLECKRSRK

| IC50 | SMILES |
| --- | --- |
| 19 nM | CC(=O)Nc1cc(-c2[nH]c3c(c2Nc2ccccc2)C(=O)CN(C(=O)c2cnsc2)C3)ccn1 [Example 193, N-{4-[3-Anilino-4-oxo-6-(1,2-thiazol-4-ylcarbonyl)-4,5,6,7-tetrahydro-1H-pyrrolo[2,3-c]pyridin-2-yl]pyridin-2-yl}acetamide] |
| 25 nM | CC(=O)Nc1cc(-c2[nH]c3c(c2Nc2ccc(F)cc2)C(=O)CN(C(=O)OC(C)C)C3)ccn1 [Example 316, Propan-2-yl 2-[2-(acetylamino)pyridin-4-yl]-3-[(4-fluorophenyl)amino]-4-oxo-1,4,5,7-tetrahydro-6H-pyrrolo[2,3-c]pyridine-6-carboxylate] |
| 50 nM | CC(=O)Nc1cc(-c2[nH]c3c(c2Nc2ccc(C)cc2)C(=O)CN(C(=O)N(C)C)C3)ccn1 [Example 317, 2-[2-(Acetylamino)pyridin-4-yl]-N,N-dimethyl-3-[(4-methylphenyl)amino]-4-oxo-1,4,5,7-tetrahydro-6H-pyrrolo[2,3-c]pyridine-6-carboxamide] |
| 4 nM | CC(=O)Nc1cc(-c2[nH]c3c(c2Nc2ccccc2)C(=O)CN(C(=O)CCF)C3)ccn1 [Example 211, N-4-[6-(3-Fluoropropanoyl)-4-oxo-3-(phenylamino)-4,5,6,7-tetrahydro-1H-pyrrolo[2,3-c]pyridin-2-yl]pyridin-2-ylacetamide] |
| 4 nM | CC(=O)Nc1cc(-c2[nH]c3c(c2Nc2ccccc2)C(=O)CN(C(=O)N(C)C)C3)ccn1 [Example 124, 2-(2-Acetamidopyridin-4-yl)-3-anilino-N,N-dimethyl-4-oxo-1,4,5,7-tetrahydro-6H-pyrrolo[2,3-c]pyridine-6-carboxamide] |
| 7 nM | COc1cnccc1-c1[nH]c2c(c1Nc1ccccc1)C(=O)CN(S(=O)(=O)C(C)C)C2 [Example 109, 2-(3-Methoxypyridin-4-yl)-3-(phenylamino)-6-(propan-2-ylsulfonyl)-1,5,6,7-tetrahydro-4H-pyrrolo[2,3-c]pyridin-4-one] |
| 79 nM | O=C(CC(F)(F)F)Nc1cc(-c2[nH]c3c(c2Nc2ccccc2)C(=O)COC3)ccn1 [Example 36, 3,3,3-Trifluoro-N-{4-[4-oxo-3-(phenylamino)-1,4,5,7-tetrahydropyrano[3,4-b]pyrrol-2-yl]pyridin-2-yl}propanamide] |
| 135 nM | CC(=O)Nc1cc(-c2[nH]c3c(c2Nc2ccccc2)C(=O)CN(C(=O)CCC(F)(F)F)C3)ccn1 [Example 190, N-{4-[3-Anilino-4-oxo-6-(4,4,4-trifluorobutanoyl)-4,5,6,7-tetrahydro-1H-pyrrolo[2,3-c]pyridin-2-yl]pyridin-2-yl}acetamide] |
| 11 nM | CSCCNC(=O)N1CC(=O)c2c([nH]c(-c3ccncc3)c2Nc2ccccc2)C1 [Example 87, N-[2-(Methylsulfanyl)ethyl]4-oxo-3-(phenylamino)-2-(pyridin-4-yl)-1,4,5,7-tetrahydro-6H-pyrrolo[2,3-c]pyridine-6-carboxamide] |
| 29 nM | CC(=O)Nc1cc(-c2[nH]c3c(c2Nc2ccccc2)C(=O)CN(C(=O)N2CCN(C)CC2)C3)ccn1 [Example 127, N-(4-{3-Anilino-6-[(4-methylpiperazin-1-yl)carbonyl]-4-oxo-4,5,6,7-tetrahydro-1H-pyrrolo[2,3-c]pyridin-2-yl}pyridin-2-yl)acetamide] |
| 81 nM | O=C1CNCc2[nH]c(-c3ccnc(NC(=O)[C@@H]4C[C@@H]4F)c3)c(Nc3ccccc3)c21 (relative stereo) [Example 136, rel-(1S,2S)—N-[4-(3-Anilino-4-oxo-4,5,6,7-tetrahydro-1H-pyrrolo[2,3-c]pyridin-2-yl)pyridin-2-yl]-2-fluorocyclopropanecarboxamide] |
| 77 nM | O=C1COCc2[nH]c(-c3ccncc3Cl)c(Nc3ccccc3)c21 [Example 42, 2-(3-Chloropyridin-4-yl)-3-(phenylamino)-1,7-dihydropyrano[3,4-b]pyrrol-4(5H)-one] |
| 6 nM | CCNC(=O)N1CC(=O)c2c([nH]c(-c3ccncc3)c2Nc2ccccc2)C1 [Example 10, N-Ethyl-4-oxo-3-(phenylamino)-2-(pyridin-4-yl)-1,4,5,7-tetrahydro-6H-pyrrolo[2,3-c]pyridine-6-carboxamide] |
| 2 nM | CS(=O)(=O)N1CC(=O)c2c([nH]c(-c3ccnc(NC(=O)[C@@H]4C[C@@H]4F)c3)c2Nc2ccccc2)C1 [Example 203] |
| 5 nM | CNC(=O)N1CC(=O)c2c([nH]c(-c3ccnc(NC(C)=O)c3)c2Nc2ccccc2)C1 [Example 168, 2-(2-Acetamidopyridin-4-yl)-3-anilino-N-methyl-4-oxo-1,4,5,7-tetrahydro-6H-pyrrolo[2,3-c]pyridine-6-carboxamide] |
| 66 nM | CN1CCN(C(=O)N2CC(=O)c3c([nH]c(-c4ccncc4OCC(F)F)c3Nc3ccccc3)C2)CC1 [Example 240, 2-[3-(2,2-Difluoroethoxy)pyridin-4-yl]-6-[(4-methylpiperazin-1-yl)carbonyl]-3-(phenylamino)-1,5,6,7-tetrahydro-4H-pyrrolo[2,3-c]pyridin-4-one] |
| 16 nM | CC(=O)Nc1cc(-c2[nH]c3c(c2Nc2ccc(F)cc2)C(=O)CN(C(C)=O)C3)ccn1 [Example 312, N-(4-(6-Acetyl-3-[(4-fluorophenyl)amino]-4-oxo-4,5,6,7-tetrahydro-1H-pyrrolo[2,3-c]pyridin-2-yl)pyridin-2-yl)acetamide] |
| 3 nM | O=C1CN(C(=O)C2CC2)Cc2[nH]c(-c3ccnc(NC(=O)[C@@H]4C[C@@H]4F)c3)c(Nc3ccccc3)c21 [Example 212, (1S,2S)—N-4-[6-(Cyclopropylcarbonyl)-4-oxo-3-(phenylamino)-4,5,6,7-tetrahydro-1H-pyrrolo[2,3-c]pyridin-2-yl]pyridin-2-yl-2-fluorocyclopropanecarboxamide] |
| 12 nM | CC(C)OC(=O)N1CC(=O)c2c([nH]c(-c3ccnc(NC(=O)c4cncs4)c3)c2Nc2ccccc2)C1 [Example 156, Isopropyl 3-anilino-4-oxo-2-{2-[(1,3-thiazol-5-ylcarbonyl)amino]pyridin-4-yl}-1,4,5,7-tetrahydro-6H-pyrrolo[2,3-c]pyridine-6-carboxylate] |
| 59 nM | O=C1CN(C(=O)Nc2cccnc2)Cc2[nH]c(-c3ccncc3)c(Nc3ccccc3)c21 [Example 97, 4-Oxo-3-(phenylamino)-N-(pyridin-3-yl)-2-(pyridin-4-yl)-1,4,5,7-tetrahydro-6H-pyrrolo[2,3-c]pyridine-6-carboxamide] |
| 42 nM | COc1cc(C(=O)Nc2cc(-c3[nH]c4c(c3Nc3ccccc3)C(=O)CN(C(=O)OC(C)(C)C)C4)ccn2)ccc1F [Example 253, tert-butyl 2-2-[(4-fluoro-3-methoxybenzoyl)amino]pyridin-4-yl-4-oxo-3-(phenylamino)-1,4,5,7-tetrahydro-6H-pyrrolo[2,3-c]pyridine-6-carboxylate] |
| 23 nM | CC(=O)Nc1cc(-c2[nH]c3c(c2Nc2ccccc2)C(=O)CN(C(=O)CC(C)(C)O)C3)ccn1 [Example 177, N-{4-[3-Anilino-6-(3-hydroxy-3-methylbutanoyl)-4-oxo-4,5,6,7-tetrahydro-1H-pyrrolo[2,3-c]pyridin-2-yl]pyridin-2-yl}acetamide] |
| 10 nM | CC(C)(C)OC(=O)N1CC(=O)c2c([nH]c(-c3ccnc(NC(=O)c4cnn[nH]4)c3)c2Nc2ccccc2)C1 [Example 274, tert-Butyl 4-oxo-3-(phenylamino)-2-2-[(1H-1,2,3-triazol-5-ylcarbonyl)amino]pyridin-4-yl-1,4,5,7-tetrahydro-6H-pyrrolo[2,3-c]pyridine-6-carboxylate] |
